pIC50, pKi: −log10 of the molar value. Active and inactive are the calls of the source. No cut-off for these calls is given here.
Key:
[1] = test system: Mus musculus; assay: Locomotor activity in CD1 mouse assessed as stimulation at 3 mg/kg, ip after 1 hr relative to control; format: functional; conditions: route intraperitoneal
[2] = test system: Mus musculus; assay: Locomotor activity in ip dosed CD1 mouse in peak hour; format: functional
[3] = molecular target: Sodium-dependent noradrenaline transporter (Homo sapiens, UniProt P23975); assay: Displacement of [3H]nisoxetine from NET
Sodium-dependent noradrenaline transporter, sequence (P23975 whole entry): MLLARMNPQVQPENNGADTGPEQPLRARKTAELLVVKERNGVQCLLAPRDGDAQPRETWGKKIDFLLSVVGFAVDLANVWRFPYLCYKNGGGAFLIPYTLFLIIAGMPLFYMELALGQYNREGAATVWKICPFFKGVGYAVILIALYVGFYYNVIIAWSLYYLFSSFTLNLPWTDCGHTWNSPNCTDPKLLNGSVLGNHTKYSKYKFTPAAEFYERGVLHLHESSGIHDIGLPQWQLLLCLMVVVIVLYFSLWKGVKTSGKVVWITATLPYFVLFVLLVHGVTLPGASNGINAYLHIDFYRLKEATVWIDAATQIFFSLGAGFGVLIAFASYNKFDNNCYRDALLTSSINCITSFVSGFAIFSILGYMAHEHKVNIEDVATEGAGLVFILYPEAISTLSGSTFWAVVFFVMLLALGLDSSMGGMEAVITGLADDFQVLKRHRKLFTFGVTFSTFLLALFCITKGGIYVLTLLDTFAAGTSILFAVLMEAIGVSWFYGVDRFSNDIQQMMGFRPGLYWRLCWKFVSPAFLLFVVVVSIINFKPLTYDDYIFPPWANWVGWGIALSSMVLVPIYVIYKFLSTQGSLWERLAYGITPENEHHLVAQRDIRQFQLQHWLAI

[4] = test system: Mus musculus; assay: Locomotor activity in CD1 mouse assessed as stimulation at 10 mg/kg, ip after 2 hrs relative to control; format: functional; conditions: route intraperitoneal
[5] = molecular target: Sodium-dependent dopamine transporter (Homo sapiens, UniProt Q01959); assay: Displacement of [3H]WIN-35428 from DAT
Sodium-dependent dopamine transporter, sequence (Q01959 whole entry): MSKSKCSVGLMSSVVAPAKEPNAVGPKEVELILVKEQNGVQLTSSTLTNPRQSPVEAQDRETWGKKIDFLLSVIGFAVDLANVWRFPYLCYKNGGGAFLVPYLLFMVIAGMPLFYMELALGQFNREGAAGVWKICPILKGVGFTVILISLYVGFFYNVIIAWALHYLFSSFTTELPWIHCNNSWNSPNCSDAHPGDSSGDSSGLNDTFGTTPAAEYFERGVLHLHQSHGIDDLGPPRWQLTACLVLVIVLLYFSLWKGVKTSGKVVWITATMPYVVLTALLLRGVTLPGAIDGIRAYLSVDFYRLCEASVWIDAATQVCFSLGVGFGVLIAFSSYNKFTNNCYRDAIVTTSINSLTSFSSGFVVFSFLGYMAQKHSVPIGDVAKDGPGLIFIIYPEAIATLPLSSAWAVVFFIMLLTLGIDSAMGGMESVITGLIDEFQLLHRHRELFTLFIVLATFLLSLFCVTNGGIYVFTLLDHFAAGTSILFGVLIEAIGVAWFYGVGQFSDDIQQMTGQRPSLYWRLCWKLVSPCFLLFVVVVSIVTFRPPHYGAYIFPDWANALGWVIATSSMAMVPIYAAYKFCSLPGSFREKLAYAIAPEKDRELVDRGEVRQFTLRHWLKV

[6] = test system: Mus musculus; assay: Activity in CD1 mouse assessed as stereotypy at 100 mg/kg, ip after 4 hrs; format: functional, organism-based; set-up: dose 100 mg/kg
[7] = test system: Mus musculus; assay: Locomotor activity in CD1 mouse assessed as stimulation at 30 mg/kg, ip after 3 hrs relative to control; format: functional; conditions: route intraperitoneal
[8] = test system: Mus musculus; assay: Locomotor activity in CD1 mouse assessed as stimulation at 30 mg/kg, ip after 2 hrs relative to control; format: functional; conditions: route intraperitoneal
[9] = test system: Mus musculus; assay: Locomotor activity in CD1 mouse assessed as stimulation at 100 mg/kg, ip after 4 hrs relative to control; format: functional; conditions: route intraperitoneal
[10] = test system: Rattus norvegicus; assay: Drug discrimination effect in CD Albino rat assessed as percent of rat choosing cocaine lever at 3 mg/kg, ip; format: functional; conditions: route intraperitoneal
[11] = test system: Mus musculus; assay: Locomotor activity in CD1 mouse assessed as stimulation at 3 mg/kg, ip after 2 hrs relative to control; format: functional; conditions: route intraperitoneal
[12] = test system: Mus musculus; assay: Activity in CD1 mouse assessed as hyperactivity at 100 mg/kg, ip after 4 hrs; format: functional, organism-based; set-up: dose 100 mg/kg
[13] = test system: Rattus norvegicus; assay: Drug discrimination effect in CD Albino rat assessed as percent of rat choosing cocaine lever at 10 mg/kg, ip; format: functional; conditions: route intraperitoneal
[14] = test system: Mus musculus; assay: Locomotor activity in CD1 mouse assessed as stimulation at 3 mg/kg, ip after 4 hrs relative to control; format: functional; conditions: route intraperitoneal
[15] = test system: Mus musculus; assay: Activity in CD1 mouse assessed as slight or intermittent hyperactivity at 10 mg/kg, ip after 4 hrs; format: functional, organism-based; set-up: dose 10 mg/kg
[16] = test system: Mus musculus; assay: Locomotor activity in CD1 mouse assessed as stimulation at 3 mg/kg, ip after 3 hrs relative to control; format: functional; conditions: route intraperitoneal
[17] = test system: Rattus norvegicus; assay: Drug discrimination effect in CD Albino rat assessed as percent of rat choosing cocaine lever at 30 mg/kg, ip; format: functional; conditions: route intraperitoneal
[18] = test system: Mus musculus; assay: Locomotor activity in CD1 mouse assessed as stimulation at 10 mg/kg, ip after 3 hrs relative to control; format: functional; conditions: route intraperitoneal
[19] = test system: Mus musculus; assay: Locomotor activity in CD1 mouse assessed as stimulation at 30 mg/kg, ip after 1 hr relative to control; format: functional; conditions: route intraperitoneal
[20] = test system: Rattus norvegicus; assay: Drug discrimination effect in CD Albino rat assessed as percent of rat choosing cocaine lever at 1.7 mg/kg, ip; format: functional; conditions: route intraperitoneal
[21] = test system: Rattus norvegicus; assay: Drug discrimination effect in CD Albino rat assessed as percent of rat choosing cocaine lever at 1 mg/kg, ip; format: functional; conditions: route intraperitoneal
[22] = test system: Mus musculus; assay: Locomotor activity in CD1 mouse assessed as stimulation at 100 mg/kg, ip after 3 hrs relative to control; format: functional; conditions: route intraperitoneal
[23] = test system: Rattus norvegicus; assay: Drug discrimination effect in CD Albino rat assessed as percent of rat choosing cocaine lever at 5.6 mg/kg, ip; format: functional; conditions: route intraperitoneal
[24] = test system: Mus musculus; assay: Locomotor activity in CD1 mouse assessed as stimulation at 30 mg/kg, ip after 4 hrs relative to control; format: functional; conditions: route intraperitoneal
[25] = test system: Mus musculus; assay: Locomotor activity in CD1 mouse assessed as stimulation at 10 mg/kg, ip after 4 hrs relative to control; format: functional; conditions: route intraperitoneal
[26] = test system: Mus musculus; assay: Locomotor activity in CD1 mouse assessed as stimulation at 10 mg/kg, ip after 1 hr relative to control; format: functional; conditions: route intraperitoneal
[27] = test system: Mus musculus; assay: Locomotor activity in CD1 mouse assessed as stimulation at 100 mg/kg, ip after 1 hr relative to control; format: functional; conditions: route intraperitoneal
[28] = test system: Mus musculus; assay: Locomotor activity in CD1 mouse assessed as stimulation at 100 mg/kg, ip after 2 hrs relative to control; format: functional; conditions: route intraperitoneal
[29] = test system: Mus musculus; assay: Activity in CD1 mouse assessed as circling at 100 mg/kg, ip after 4 hrs; format: functional, organism-based; set-up: dose 100 mg/kg
[30] = test system: Rattus norvegicus; assay: Cocaine discrimination in ip dosed CD Albino rat; format: functional
[31] = test system: Rattus norvegicus; assay: Drug discrimination effect in CD Albino rat assessed as percent of rat choosing cocaine lever at 17 mg/kg, ip; format: functional; conditions: route intraperitoneal
[32] = test system: Mus musculus; assay: Activity in CD1 mouse assessed as straub tail at 100 mg/kg, ip after 4 hrs; format: functional, organism-based; set-up: dose 100 mg/kg
[33] = test system: Mus musculus; assay: Activity in CD1 mouse assessed as stereotypy at 10 mg/kg, ip after 4 hrs; format: functional, organism-based; set-up: dose 10 mg/kg
[34] = test system: Mus musculus; assay: Locomotor activity in CD1 mouse assessed as stimulation at 1 mg/kg, ip after 2 hrs relative to control; format: functional; conditions: route intraperitoneal
[35] = test system: Mus musculus; assay: Activity in CD1 mouse assessed as slight or intermittent hyperactivity at 1 mg/kg, ip after 4 hrs; format: functional, organism-based; set-up: dose 1 mg/kg
[36] = test system: Rattus norvegicus; assay: Drug discrimination effect in CD Albino rat assessed as percent of rat choosing cocaine lever at 0.56 mg/kg, ip; format: functional; conditions: route intraperitoneal
[37] = test system: Mus musculus; assay: Activity in CD1 mouse assessed as convulsions at 100 mg/kg, ip after 4 hrs; format: functional, organism-based; set-up: dose 100 mg/kg
[38] = test system: Rattus norvegicus; assay: Drug discrimination effect in CD Albino rat assessed as percent of rat choosing cocaine lever at 0.3 mg/kg, ip; format: functional; conditions: route intraperitoneal
[39] = test system: Mus musculus; assay: Locomotor activity in CD1 mouse assessed as stimulation at 1 mg/kg, ip after 4 hrs relative to control; format: functional; conditions: route intraperitoneal
[40] = test system: Mus musculus; assay: Locomotor activity in CD1 mouse assessed as stimulation at 1 mg/kg, ip after 3 hrs relative to control; format: functional; conditions: route intraperitoneal
[41] = test system: Rattus norvegicus; assay: Drug discrimination effect in CD Albino rat assessed as percent of rat choosing cocaine lever at 0.17 mg/kg, ip; format: functional; conditions: route intraperitoneal
[42] = test system: Mus musculus; assay: Activity in CD1 mouse assessed as hyperactivity at 10 mg/kg, ip after 4 hrs; format: functional, organism-based; set-up: dose 10 mg/kg
[43] = molecular target: Sodium-dependent serotonin transporter (Homo sapiens, UniProt P31645)
Sodium-dependent serotonin transporter, sequence (P31645 whole entry): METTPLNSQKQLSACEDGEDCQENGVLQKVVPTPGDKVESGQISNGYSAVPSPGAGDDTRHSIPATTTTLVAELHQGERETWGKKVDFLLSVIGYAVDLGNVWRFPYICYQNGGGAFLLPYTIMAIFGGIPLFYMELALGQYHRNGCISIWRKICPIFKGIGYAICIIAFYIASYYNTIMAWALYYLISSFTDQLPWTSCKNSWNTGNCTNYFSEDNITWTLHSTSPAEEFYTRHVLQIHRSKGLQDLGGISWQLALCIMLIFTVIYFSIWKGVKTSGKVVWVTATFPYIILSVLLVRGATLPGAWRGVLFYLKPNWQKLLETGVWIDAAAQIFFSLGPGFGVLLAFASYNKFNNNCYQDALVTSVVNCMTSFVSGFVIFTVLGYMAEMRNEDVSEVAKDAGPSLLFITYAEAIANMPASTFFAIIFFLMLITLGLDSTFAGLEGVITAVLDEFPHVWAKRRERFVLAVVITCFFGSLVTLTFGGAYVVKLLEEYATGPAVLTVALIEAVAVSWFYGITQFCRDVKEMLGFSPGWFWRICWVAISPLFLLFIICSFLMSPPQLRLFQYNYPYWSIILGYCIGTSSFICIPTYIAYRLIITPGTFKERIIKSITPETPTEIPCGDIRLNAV
Description: Displacement of [3H]paroxetine from 5HTT

[44] = test system: Mus musculus; assay: Locomotor activity in CD1 mouse assessed as stimulation at 0.3 mg/kg, ip after 1 hr relative to control; format: functional; conditions: route intraperitoneal
[45] = test system: Mus musculus; assay: Locomotor activity in CD1 mouse assessed as stimulation at 0.3 mg/kg, ip after 4 hrs relative to control; format: functional; conditions: route intraperitoneal
[46] = test system: Mus musculus; assay: Activity in CD1 mouse assessed as slight or intermittent stereotypy at 1 mg/kg, ip after 4 hrs; format: functional, organism-based; set-up: dose 1 mg/kg
[47] = test system: Mus musculus; assay: Locomotor activity in CD1 mouse assessed as stimulation at 0.3 mg/kg, ip after 3 hrs relative to control; format: functional; conditions: route intraperitoneal
[48] = test system: Mus musculus; assay: Locomotor activity in CD1 mouse assessed as stimulation at 1 mg/kg, ip after 1 hr relative to control; format: functional; conditions: route intraperitoneal
[49] = test system: Mus musculus; assay: Locomotor activity in CD1 mouse assessed as stimulation at 0.3 mg/kg, ip after 2 hrs relative to control; format: functional; conditions: route intraperitoneal
[50] = test system: Mus musculus; assay: Activity in CD1 mouse assessed as hind limb splay at 100 mg/kg, ip after 4 hrs; format: functional, organism-based; set-up: dose 100 mg/kg; conditions: Hindlimb
[51] = test system: Mus musculus; assay: Activity in CD1 mouse assessed as death at 100 mg/kg, ip after 4 hrs; format: functional, organism-based; set-up: dose 100 mg/kg
[52] = test system: Mus musculus; assay: Activity in CD1 mouse assessed as ptosis at 100 mg/kg, ip after 4 hrs; format: functional, organism-based; set-up: dose 100 mg/kg
[53] = test system: Mus musculus; assay: Activity in CD1 mouse assessed as flattened body posture at 100 mg/kg, ip after 4 hrs; format: functional, organism-based; set-up: dose 100 mg/kg

| Compound | Activity [1] | ED50 [2] | pIC50 [3] | pKi [3] | Activity [4] | pIC50 [5] | Activity [6] | Activity [7] | Activity [8] | Activity [10] | Activity [11] | Activity [13] | Activity [14] | Activity [16] | Activity [18] | Activity [19] | Activity [21] | Activity [23] | Activity [25] | Activity [26] | other results |
| --- | --- | --- | --- | --- | --- | --- | --- | --- | --- | --- | --- | --- | --- | --- | --- | --- | --- | --- | --- | --- | --- |
| COC(=O)[C@@H]1C2CCC(C[C@H]1c1ccc(C)cc1)N2C (some centres not stated) | 28% | 14.7 mg/kg | 6.57 | 6.80 | 149% | 7.99 | Active | 5% | 147% | 29% | 29% | 43% | -41% | -6% | 108% | 482% | 0% | 43% | 22% | 294% | Activity [9]: 18%; Activity [12]: Active; Activity [15]: Active; Activity [17]: 100%; Activity [20]: 14%; Activity [22]: 263%; Activity [24]: -66%; Activity [27]: 843%; Activity [28]: 436%; Activity [29]: Active; ED50 [30]: 7.73 mg/kg; Activity [31]: 75% |
| COC(=O)[C@H]1[C@@H](c2ccc(F)cc2)C[C@H]2CC[C@H]1N2C | 633% | 0.7 mg/kg | – | 6.30 | 220% | – | Active | – | – | – | 558% | – | 140% | 199% | 594% | – | 100% | – | 739% | 330% | Activity [32]: Active; Activity [33]: Active; Activity [34]: 232%; Activity [35]: Active; Activity [36]: 86%; Activity [37]: Active; Activity [38]: 57%; Activity [39]: -29%; Activity [40]: 28%; Activity [41]: 0%; Activity [42]: Active; pIC50 [43]: 6.16; pKi [43]: 7.20; Activity [44]: 5%; Activity [45]: -47%; Activity [46]: Active; Activity [47]: -66%; Activity [48]: 333%; ED50 [30]: 0.29 mg/kg; Activity [49]: -33% |
| COC(=O)[C@H]1[C@H]2CCC(C[C@H]1c1ccc(C)cc1)N2C | 6% | – | 5.41 | 5.71 | 96% | 7.63 | – | 78% | -36% | 0% | 132% | 0% | 56% | 47% | 120% | -57% | 13% | 13% | -36% | 8% | Activity [50]: Active; Activity [51]: Active; Activity [34]: 110%; Activity [37]: Active; Activity [39]: -51%; Activity [40]: 118%; Activity [24]: -35%; Activity [52]: Active; Activity [48]: -15%; Activity [53]: Active |
